Experimental data as given in patent US10954244B2, “Compounds and uses thereof” (Kala Pharmaceuticals, Inc., priority 2013, dated 2021).

Tests used:
[1] = Milling with Pluronic F127 to mucus penetrating particles, particle size by dynamic light scattering; format: physicochemical; settings: formulated as MPP, milled with Pluronic F127, DPBS buffered
Text: Compounds of the present invention synthesized in accordance with the preceding Examples were formulated as mucus penetrating particles (MPP). Specifically, compounds I-2, compound I-5, and compound I-6 were each milled in the presence of Pluronic F127 (F127) to determine whether F127 1) aids particle size reduction to several hundreds of nanometers and 2) physically (non-covalently) coats the surface of generated nanoparticles with a mucoinert coating that would minimize particle interactions with mucus constituents and prevent mucus adhesion.
A milling procedure was employed in which an aqueous dispersion containing coarse drug particles and Pluronic F127 (F127) was milled with grinding medium until particle size was reduced below 400 nm as measured by dynamic light scattering. Table 4 lists the size of particles and polydispersity index (a measure of the width of the particle size distribution) generated using this technique. In this example suspensions were buffered using DPBS (Dulbecco's Phosphate-Buffered Saline) which yields a suspension that is both isotonic and has a physiologically relevant pH.

[2] = Mobility of nanoparticles in human cervicovaginal mucus (dark field microscopy); settings: low pH of CVM
Method: In order to determine whether the generated nanoparticles have reduced interactions with mucins and are therefore able to move within mucus without becoming trapped, particles were incubated with human cervicovaginal mucus (CVM) and observed via dark field microscopy. In a typical experiment, 51 μL of the nanoparticle suspension was added to 20 μl of CVM. Observations were made in a minimum of three distinct and randomly selected areas of the CVM sample. Control particles with known behavior were used to qualify the CVM sample as appropriate for the assay.

[3] = Physical and chemical stability of I-2 solutions at room temperature; format: physicochemical; settings: formulation buffered in 20 mM Tris (pH 8), F127
Method: Solutions of I-2 were formulated with F127 or Tween 80, and under a range of pH values. Briefly, I-2 was first completely solubilized using an acidic solution (0.1 N HCl) at a high concentration of ˜5% (w/v). The final formulation was diluted to a solution consisting of 0.5% (w/v) I-2 into buffered solution containing F127 or Tween 80 as described in Table 5. Following dilution, the pH of the formulations was measured using pH indicator strips (PEHANON) and confirmed to be within expected range (±0.5 units of target pH).
Physical and chemical stability of the solutions at room temperature (20-25° C.) were assessed after 7-10 days (tfinal). Physical instability in a solution can manifest as the precipitation and sedimentation of the drug of interest and excipients over time. To assess physical stability, the formulations at tfinal were first filtered through a 300 kDa modified polyethersulfone filter membrane (Nanosep) to remove any precipitate in the solution. The concentration of I-2 in the filtrates was then measured and compared to that at t=0. The purity of I-2 in the unfiltered solution was also evaluated at tfinal, to further confirm chemical stability. This parameter is defined by the area under the signal peak that is attributed to compound I-2 as a percentage of all peaks reported by in the sample by HPLC (% peak area).

[4] = Draize-Ocular Irritation assessment; format: in vivo, Dutch-belted rabbits; settings: topical I-2 solution during the PK studies

For `Cc1cc(C(=O)Nc2cc(Oc3ccc4nc(NC(=O)NC5COC5)cn4n3)ccc2C)n(C)n1` [Compound I-5], the “Polydispersity Index (PDI)” value [1] was 0.160.

In the case of `Cc1ccc(Oc2ccc3nc(NC(=O)CC4COC4)cn3n2)cc1NC(=O)c1cccc(F)c1` [Compound I-6], the “Particle Size” value ([1]; dynamic light scattering) is reported as 245 nm.

In the case of `Cc1cc(C(=O)Nc2cc(Oc3ccc4nc(NC(=O)CN5CC[C@H](N(C)C)C5)cn4n3)ccc2C)n(C)n1` [Compound I-2], the “solubility in CVM” value [2] is reported as “soluble in the low pH of CVM”, the “physical stability of the solution” value [3] is reported as “major physical instability (i.e., precipitation)” and the “Draize-Ocular Irritation” value [4] is reported as “no irritation was seen”.
